The record followed here is PMC11434840, “Discovery of Benzopyrone-Based Candidates as Potential Antimicrobial and Photochemotherapeutic Agents through Inhibition of DNA Gyrase Enzyme B: Design, Synthesis, In Vitro and In Silico Evaluation” (Pharmaceuticals, 2024).

Like-named read-outs stand apart in the source and are kept apart here.

Data set [1] deals with Bacillus subtilis ATCC 14579. Nature of the data set: Antimicrobial agar cup-plate assay, B. subtilis. The class given is cell-based. The conditions noted are these: 0.1 mL of compound in DMF, overnight incubation, mean ± SD, at least three experiments. How it is done: (§1) The antimicrobial activity of all newly synthesized compounds was determined using the agar cup-plate method using the Hi-Media agar medium. Xanthotoxin, tobramycin, and amphotericin B were used as reference drugs. All newly synthesized compounds were tested against two strains of Gram-positive bacteria (Bacillus subtilis ATCC 14579 and Staphylococcus aureus ATCC 25923), Gram-negative bacteria (Escherichia coli ATCC 25922), and yeast (Candida albicans ATCC 10231).
(§2) The nutrient agar medium consists of 0.3% of beef extract, 0.5% of peptone, 0.1% dipotassium hydrogen phosphate, and 1.5% agar. Broth cultures of the organisms were prepared by incubating slant agar seeded with the organisms overnight.
(§3) The prepared broth culture (0.02 mL) was carefully added to sterile Petri dishes. Then, 10 mL of the liquefied nutrient agar medium was poured into each dish, mixed uniformly, and allowed to solidify. Using a sterilized cork borer, cups (9 mm) were scooped out of the agar media contained in the Petri dishes. Each test compound (50 mg) was dissolved in 1 mL DMF (50 mg mL^−1), which was used as a stock solution to carry out the twofold dilution technique. A fixed volume (0.1 mL) of the tested compounds dissolved in dimethylformamide (DMF) was added. Each plate contained a cup filled with DMF to disregard the effect of solvent. Additionally, two other cups were filled with tobramycin and xanthotoxin being used as reference drugs. The plates were incubated overnight to examine the antimicrobial activity. Zones of inhibition obtained by each test compound were measured in millimeters and the results are recorded in Table 2.
(§4) GraphPad Prism-version 5 (GraphPad Software, Inc., La Jolla, CA, USA) was used for statistical analysis.

The test system of data set [2] is Staphylococcus aureus ATCC 25923. Nature of the data set: Antimicrobial agar cup-plate assay, S. aureus. The data set is classed as cell-based. To be noted: 0.1 mL of compound in DMF, overnight incubation, mean ± SD, at least three experiments. How it is done: as §1, §2, §3, §4
Data set [3] deals with Escherichia coli ATCC 25922. Nature of the data set: Antimicrobial agar cup-plate assay, E. coli. The data set is classed as cell-based. The conditions noted are these: 0.1 mL of compound in DMF, overnight incubation, mean ± SD, at least three experiments. How it is done: as §1, §2, §3, §4
Data set [4] relates to Candida albicans ATCC 10231. The experiment in a line: Antimicrobial agar cup-plate assay, C. albicans. The class given is cell-based. Further details: key to Inhibition Zone (mm) C. albicans: -: no activity. The conditions noted are these: 0.1 mL of compound in DMF, overnight incubation, mean ± SD, at least three experiments. How it is done:
as §1, §2, §3, §4

Data set [5] concerns Bacillus subtilis ATCC 14579. The experiment in a line: Photosensitizing assay (MIC before and after UV irradiation, agar cup-plate). The class given is cell-based. To be noted: Bacillus subtilis, ATCC14579, light or radiation study, B. subtilis. How it is done:
The photosensitizing activity was determined using the agar cup-plate method (described in Section 2.3) with Hi-Media agar medium. The antibacterial activity against Bacillus subtilis ATCC 14579 was measured before and after exposure to UV lamp (365 nm). The diameters of the inhibition zones were measured in mm and the results were compared with xanthotoxin. The tested organism used was Bacillus subtilis.
For the photosensitizing activity, xanthotoxin was used as a reference drug and DMF as a negative control. The minimum inhibitory concentrations (MIC) were determined using the agar cup-plate method. Each test compound (50 mg) was dissolved in 1 mL DMF (50 mg mL^−1), which was used as a stock solution to carry out the twofold dilution technique. The sample size for all the compounds was adjusted to 0.1 mL. The solution of the test compound (0.1 mL) was added to the cups. The plates were divided into test plates and duplicate plates. Before irradiation, the test plates were incubated in the dark at 37 °C for 3 h to permit the diffusion of the tested compounds through the agar layer. The duplicate plates were incubated overnight and used as a control for the determination of the antibacterial activity. The covers were removed from the test plates, and the dishes were exposed to UV lamp (365 nm) for 20 min. After irradiation, the plates were left overnight in the dark at 37 °C. MIC, the least concentration preventing visible bacterial growth, was determined in both the control and test, indicating the antibacterial and photosensitizing activity of the tested compounds, respectively.
To evaluate the significance of the difference in the results, each experiment was repeated at least three times. […] GraphPad Prism-version 5 (GraphPad Software, Inc., La Jolla, CA, USA) was used to perform statistical analysis of the results.

The target of another data set is T1, E. coli DNA gyrase (Escherichia coli, UniProt P0AES6).
T1 construct: purchased John Innes Enterprises Ltd
The experiment in a line: In vitro DNA gyrase supercoiling inhibitory assay. The class given is biochemical. The conditions noted are these: mean ± SD of three separate experiments.

[6] abbreviates: 20 min, after irradiation with UV lamp (365 nm) for 20 min (photosensitizing activity), 100 μL per cup, read-out: MIC (mg mL^−1) Test.
Where [7] appears, read: 20 min, after irradiation with UV lamp (365 nm) for 20 min (photosensitizing activity), read-out: MIC (mM) Test.
The mark [8] stands for this setting: without irradiation (antibacterial activity), 100 μL per cup, read-out: MIC (mg mL^−1) Control.
The mark [9] stands for this setting: without irradiation (antibacterial activity), read-out: MIC (mM) Control.
Setting [10] is: IC50 (μM) DNA gyrase supercoiling.
The mark [11] stands for this setting: IC50 (μg mL^−1) DNA gyrase supercoiling.

Protocol for E. coli DNA gyrase: The supercoiling assay, based on DNA triplex, formation [43] was performed on the black streptavidin-coated 96-well microtiter plates (Thermo Scientific Pierce). Serial dilutions of the tested compounds and standard drugs were prepared, starting from 5.0 U/mL (5.0, 2.5, 1.25, 0.625, 0.312, 0.156, and 0.078 U/mL). The plates were first rehydrated with the supplied wash buffer [20 mM Tris-HCl (pH 7.6), 137 mM NaCl 0.01% (w/v), BSA 0.05% (v/v) Tween 20] and oligonucleotide was immobilized onto the wells. The excess oligonucleotide was then washed off, and the enzyme assay was carried out in the wells.
The final reaction volume of 30 μL in buffer [35 mM Tris × HCl (pH 7.5), 24 mM KCl, 4 mM MgCl2, 2 mM DTT (dithiothreitol), 1.8 mM spermidine, 1 mM ATP, 6.5% (w/v) glycerol, 0.1 mg/mL albumin] contained 1.5 U of gyrase from E. coli, 0.75 μg of relaxed pNO1 plasmid, and 3 μL of inhibitor solution in 10% DMSO and 0.008% Tween 20. Reactions were incubated for 30 min at 37 °C and after the addition of the TF buffer [50 mM NaOAc (pH 5.0), 50 mM NaCl, and 50 mM MgCl2], which terminated the enzymatic reaction for another 30 min at rt to allow the triplex formation. The unbound plasmid was then washed off using TF buffer, and a solution of SybrGOLD stain in T10 buffer [10 mM Tris × HCl (pH 8.0) and 1 mM EDTA] was added. After mixing, the fluorescence (excitation: 495 nm, emission: 537 nm) was measured using BioTek Synergy HT microplate reader. […] GraphPad Prism-version 5 (GraphPad Software, Inc., La Jolla, CA, USA) was used to determine the IC50 values of both the tested compounds and standard drugs across the different concentrations.

In general, MIC refers to the least concentration at which growth counts as inhibited. Broadly, the IC50 is the concentration that gives 50% inhibition. As a reminder, the melting point is the temperature of the solid-liquid transition. As for `CCc1cc2c(C)cc(=O)oc2c2c(-c3ccccc3)coc12` [Compound 8a, 9-Ethyl-7-methyl-3-phenyl-5H-furo[2,3-h]benzopyran-5-one], the melting point is 103 to 105 °C. The “Inhibition Zone (mm) B. subtilis” value in data set [1] is reported as 20 ± 1.414 mm. Besides, the “Inhibition Zone (mm) S. aureus” value in data set [2] is 25 ± 1.414 mm. The “Inhibition Zone (mm) E. coli” value in data set [3] was 30 ± 1.414 mm. Also, the “Inhibition Zone (mm) C. albicans” value in data set [4] is on record as “-”. Further, in data set [5] (setting [6]), the minimal inhibitory concentration (MIC) came out at 97 µg/mL. Moreover, in data set [5] (setting [7]), the MIC amounted to 0.32 mM. For the same compound, in data set [5] (setting [8]), the MIC was determined as 310 µg/mL. Also, the MIC in data set [5] (setting [9]) worked out at 1.02 mM. The IC50 against E. coli DNA gyrase (setting [10]) came out at 7.89 ± 0.117 µM. Also, the IC50 on E. coli DNA gyrase (setting [11]) is 7.89 µM.
As to `CCc1cc2c(C)cc(=O)oc2c2c(-c3ccc(C)cc3)coc12` [Compound 8b, 9-Ethyl-7-methyl-3-(4-methylphenyl)-5H-furo[2,3-h]benzopyran-5-one], the melting point lay within 149 to 151 °C. Moreover, the “Inhibition Zone (mm) B. subtilis” value in data set [1] stood at 10 ± 1.414 mm. Besides, the “Inhibition Zone (mm) S. aureus” value in data set [2] is 30 ± 1.414 mm. Also, the “Inhibition Zone (mm) E. coli” value in data set [3] was determined as 30 ± 1.414 mm. The “Inhibition Zone (mm) C. albicans” value in data set [4] is given as “-”. For the same compound, the MIC in data set [5] (setting [6]) is 97 µg/mL. Further, the MIC in data set [5] (setting [7]) was 0.3 mM. Moreover, in data set [5] (setting [8]), the MIC was found to be 780 µg/mL. For the same compound, the MIC in data set [5] (setting [9]) came out at 2.45 mM. The half-maximal inhibitory concentration (IC50) on E. coli DNA gyrase (setting [10]) came to 38.6 ± 0.513 µM. On E. coli DNA gyrase (setting [11]), this compound gave an IC50 of 38.6 µM.
With `CCc1cc2c(-c3ccccc3)cc(=O)oc2c2c(-c3ccccc3)coc12` [Compound 8d, 3,7-Diphenyl-9-ethyl-5H-furo[2,3-h]benzopyran-5-one], the melting point was in the range of 178 to 180 °C. In addition, the “Inhibition Zone (mm) B. subtilis” value in data set [1] came out at 12 ± 0.8165 mm. In addition, the “Inhibition Zone (mm) S. aureus” value in data set [2] is 23 ± 1.414 mm. Moreover, the “Inhibition Zone (mm) E. coli” value in data set [3] worked out at 30 ± 0.8165 mm. For the same compound, the “Inhibition Zone (mm) C. albicans” value in data set [4] was “-”. Moreover, the MIC in data set [5] (setting [6]) was determined as 97 µg/mL. Moreover, the minimal inhibitory concentration (MIC) in data set [5] (setting [7]) is 0.26 mM. In addition, in data set [5] (setting [8]), the MIC was determined as 780 µg/mL. Moreover, in data set [5] (setting [9]), the MIC came to 2.13 mM. On E. coli DNA gyrase (setting [10]), this compound registered an IC50 of 0.76 ± 0.0223 µM. For the same compound, on E. coli DNA gyrase (setting [11]), the IC50 was 0.764 µM.
